Data: US10137182B2, “Cancer vaccines and vaccination methods” (ImmunoCellular Therapeutics, Ltd., priority 2013, dated 2018)
“Also recorded” adds a separate entry of the source. Read-outs that look alike come from different tables or passages of the source. Values belong to the molecule of their own block, whether it stands above or below them. Where no end group is shown, it is not given here.

What was measured:
[1] = tested on: HLA-A2+ human ovarian cancer stem cells 1031CSC
[2] = tested on: HLA-A2+ human ovarian cancer stem cells 882CSC
[3] = Immunogenicity in vitro of A2 peptide epitopes (Table 1); details: A2 peptide epitope(s) of Exemplary Vaccine 1; no method given
HLA-A*0201 molecules = HLA-A*0201 molecules (Homo sapiens, UniProt P04439, D140Y/D185E/D98H/E176V/E277Q/G131W/G231S/I119V/I121R/I166T/I218V/L300P/L318F/N151K/N90K/P208A/P217A/Q86G/Q94H/R138H/R169H/T345S); test: T2 cell binding assay of HLA-A2 peptides (upregulation of HLA-A2 on T2 cells, MFI by flow cytometry); details: for binding affinity to HLA-A*0201 molecules / T2 cells (in words): peptide 75 μg/ml, overnight
[4] = tested on: HLA-A2+ human ovarian cancer stem cells 1031CSC; test: Killing assay (DDAO-SE / cleaved caspase-3) with peptide-specific CTLs against 1031CSC; details: CTLs induced by peptide-pulsed HLA-A2+ DC; target:effector 1:10, overnight
[5] = tested on: HLA-A2+ human ovarian cancer stem cells 882CSC; test: Killing assay (DDAO-SE / cleaved caspase-3) with peptide-specific CTLs against 882CSC; details: CTLs induced by peptide-pulsed HLA-A2+ DC; target:effector 1:10, overnight

Molecule: CSCC[C@H](NC(=O)[C@@H](N)C(C)C)C(=O)N[C@@H](C)C(=O)NCC(=O)N[C@H](C(=O)NCC(=O)N[C@@H](CO)C(=O)N1CCC[C@H]1C(=O)N[C@@H](Cc1ccc(O)cc1)C(=O)N[C@H](C(=O)O)C(C)C)C(C)C [HER2 p773]
cytotoxicity of peptide-specific CTLs against 1031CSC [1]: can efficiently recognize and lyse | cytotoxicity of peptide-specific CTLs against 882CSC [2]: can efficiently recognize and lyse

MFI index (relative binding affinity fluorescence index, FI) (HLA-A*0201 molecules; T2 cells incubated overnight with peptide 75 μg/ml and β2-microglobulin, FI = MFI(peptide)−MFI(untreated cells)/MFI(untreated cells)): less than 1 | binding affinity to HLA-A*0201 molecules / T2 cells (in words) (HLA-A*0201 molecules): lower affinity binding
Molecule: EIWTHSYKV (listed as Homo sapiens) [FOLR1 p191]
Immunogenicity in vitro [3]: Yes | binding affinity to HLA-A*0201 molecules / T2 cells (in words) (HLA-A*0201 molecules; listed as FOLR1p191): low affinity; also recorded: lower binding capacity

binding affinity to HLA-A*0201 molecules / T2 cells (in words) (HLA-A*0201 molecules): high affinity binding
Molecule: KVLEYVIKV (listed as Homo sapiens) [MAGE-A1 p278]
Immunogenicity in vitro [3]: Yes

Molecule: SLLFLLFSL (listed as Homo sapiens)
Immunogenicity in vitro [3]: Yes

Molecule: SLLMWITQC [NY-ESO-1 p157]
Immunogenicity in vitro [3]: Yes

Molecule: TLADFDPRV [EphA2 p883]
cytotoxicity of peptide-specific CTLs against 1031CSC [4]: can efficiently recognize and lyse | cytotoxicity of peptide-specific CTLs against 882CSC [5]: can efficiently recognize and lyse

binding affinity to HLA-A*0201 molecules / T2 cells (in words) (HLA-A*0201 molecules): high affinities | binding affinity to HLA-A*0201 molecules / T2 cells (in words) (HLA-A*0201 molecules; listed as mesothelinp531): high affinity binding
Molecule: VLPLTVAEV (listed as Homo sapiens) [mesothelin p531]
Immunogenicity in vitro [3]: Yes

Molecule: WLPFGFILI [IL-13Rα2 p345]
cytotoxicity of peptide-specific CTLs against 1031CSC [4]: can efficiently recognize and lyse | cytotoxicity of peptide-specific CTLs against 882CSC [5]: can efficiently recognize and lyse
